Experimental findings from patent publication US12605350B2, “Composition for preventing, ameliorating, or treating disease caused by nitration of tyrosine in proteins comprising tyrosine as effective component” (INDUSTRY-ACADEMIC COOPERATION FOUNDATION GYEONGSANG …, priority 2020, dated 2026) are described below.

The subject of test [1] is animal model of acute hepatic encephalopathy caused by AOM. Nature of the test: ammonia in blood, hepatic encephalopathy (hyperammonemia) caused by azoxymethane. Type of test: in vivo, mouse. The settings on record: L-tyrosine 100 mg/kg oral once a day for 4 days, AOM 100 mg/kg i.p. As to the method: C57BL/6 male mouse (13-week old, KOATECH, South Korea) was allowed to have free access to diets and water in sterile breeding room with constant temperature and humidity. The animals were divided into 3 test groups, i.e., (1) Control group (Control), (2) Carboxymethyl cellulose+azoxymethane treatment group (CMC+AOM), and (3) L-Tyrosine+AOM treatment group (L-Tyr+AOM). L-Tyrosine (100 mg/kg) was suspended in 0.5% CMC (carboxymethyl cellulose). The animal was orally administered, once a day for 4 days, with L-tyrosine or the prepared solvent CMC. Two hours after the oral administration on Day 4, intraperitoneal injection of AOM (100 mg/kg, […]) was carried out. To prevent dehydration, the animal was intraperitoneally injected with […] of physiological saline, 12 hours after the administration of AOM. Four hours after the injection, the test animal was sacrificed, blood was collected from the heart, and the liver tissues were harvested. Amount of ammonia in blood was measured by using PocketChem BA PA-4140 (Arkray, Japan), which is an analytical device based on single wavelength reflectometry. Specifically, blood was applied in an amount of 20 μl on a test strip followed by reaction for 3 minutes. The strip was then inserted to the measurement device to obtain the absorbance at a wavelength of 635 nm (LED), which was then expressed in unit of μg/dl.

For test [2], the system named is IL-1β. The experiment in a line: IL-1β gene expression in kidney tissues (quantitative real-time PCR), renal ischemia and reperfusion. Type of test: in vivo, mouse. To be noted: L-tyrosine 100 mg/kg oral once a day for 4 days, 24 hours after ischemia and reperfusion. As to the method:
(§1) C57BL/6 male mouse (23 to 25 g, KOATECH, South Korea) was allowed to have free access to diets and water in sterile breeding room with constant temperature and humidity. The animals were divided into 3 test groups, i.e., 1) Control group (Sham), 2) Renal ischemia having treatment with prepared solvent and induced reperfusion group (CMC+IR), and 3) Renal ischemia having treatment with L-tyrosine and induced reperfusion group (L-Tyr+IR).
L-Tyrosine (100 mg/kg) was suspended in 0.5% CMC (carboxymethyl cellulose). The animal was orally administered, once a day for 4 days, with L-tyrosine or the prepared solvent CMC. Thirty minutes after the oral administration on Day 4, renal ischemia was caused. Specifically, the animal abdomen was cut and renal pedicles at both sides were clamped using a Muller atraumatic vascular clamp to cause renal ischemia. After 25 minutes of blood ischemia, the clamp was removed followed by reperfusion. The control group (Sham) received the same operational procedures as above except the ischemia using clamp. […]
According to Trizol method, total RNA was extracted from kidney tissues, and cDNA was synthesized by using Revert Aid Reverse Transcription System (ThermoFisher). Quantitative PCR was carried out with CFX Connect Real-Time PCR system (Bio-Rad) by using iQ SYBR Green Super mix (Bio-Rad). […]
(Real-time PCR tracks product formation cycle by cycle.)

In test [3] the test system is chronic immobilization stress group (STR). The experiment in a line: amount of glutamate, glutamine, tyrosine and GABA in PFC by LC-MS/MS. To be noted: stress group fed tyrosine diet, vs normal group. Type of test: in vivo, mouse. The text has this: The Amount of amino acids (glutamate, glutamine, tyrosine) and GABA in the PFC was quantified by liquid chromatography analysis (LC-MS/MS). PFC tissues were lysed first, and the tissue supernatant was collected and diluted with internal reference (L-Glu-d5) and mobile phase. The diluted sample was divided into 5 samples and injected to LC-MS/MS system (Agilent 6460). As for the column, SeQuant ZIC®-HILIC column (2.1×100 mm, 3.5 μm, 100 Å) was used, and, as a mobile phase, acetonitrile containing 0.1% formic acid was used, and the separation was made by using concentration gradient. For detecting the amino acids, multiple reaction monitoring and detection method was employed (m/z of Glu: 148→84, m/z of Gln: 147→84, m/z of GABA: 104→87, and m/z of internal reference: 153→88).

Test [4] has as its system mouse model of epileptic seizure which has been induced to have seizure by kainic acid. Nature of the test: epileptic seizure induced by kainic acid: seizure level, bodyweight, survival.
The subject of test [5] is acute renal failure caused by kidney ischemia or reperfusion injury. Nature of the test: ROS/RNS amount in mitochondria, renal ischemia and reperfusion. Type of test: in vivo, mouse. The settings on record: L-tyrosine 100 mg/kg oral for 4 days, IR. The procedure:
as §1
L-Tyrosine (100 mg/kg) was suspended in 0.5% CMC (carboxymethyl cellulose). The animal was orally administered, once a day for 4 days, with L-tyrosine or the prepared solvent CMC. Thirty minutes after the oral administration on Day 4, renal ischemia was caused. Specifically, the animal abdomen was cut and renal pedicles at both sides were clamped using a Muller atraumatic vascular clamp to cause renal ischemia. After 25 minutes of blood ischemia, the clamp was removed followed by reperfusion. The control group (Sham) received the same operational procedures as above except the ischemia using clamp. Twenty-four hours after the reperfusion, the test animal was sacrificed, blood was collected from the heart, and the tissues were harvested.

The test system of test [6] is glutamine synthetase (GS). The experiment in a line: GS activity, GS expression and Tyr-nitrated GS in PFC of chronic immobilization stress mice. Format: in vivo, mouse. The procedure: Each of the blood and PFC sample was obtained from a mouse anesthetized with CO2 gas. Specifically, mouse blood was collected between 9 AM and 11 AM and stored in a K3EDTA-coated vacuum container. Plasma was obtained by centrifuge for 10 minutes at 4° C., 500×g. PFC sample was weighed first, and, after lysis of the tissues by using Bullet homogenizer, subjected to centrifuge for 20 minutes at 4° C., 12,000 rpm. Thus-obtained plasma and tissue lysate were kept at −80° C. until use.
10 μg of the lysate were admixed with […] of GS assay buffer solution (50 mM imidazole-HCl, pH 6.8, 50 mM L-glutamine, 25 mM hydroxylamine, 25 mM sodium arsenate, 2 mM MnCl2 and 0.16 mM ADP), followed by incubation for 1 hour at 37° C.
After the mixing, the reaction was terminated by adding 50 μl of stop buffer solution (90 mM FeCl3, 1.8 N HCl and 1.45% trichloroacetic acid), and then γ-glutamylhydroxamate synthesized from a reaction between glutamine and hydroxylamine as catalyzed by GS was measured at 560 nm using a microplate reader.
By using Western blot (WB) and immunoprecipitation (IP)-WB, level of GS and level of Tyr-nitrated GS were measured, respectively. […]
The animal models were divided into two groups (i.e., normal group and stress group). […] Change in bodyweight and food intake amount were measured every other day. […]

Turning to `N[C@@H](Cc1ccc(O)cc1)C(=O)O` [L-tyrosine], the blood ammonia entry in test [1] is “suppressed”. The “gene expression of IL-1β in kidney tissues” value in test [2] was “suppressed”.

Turning to `N[C@@H](Cc1ccc(O)cc1)C(=O)O` [tyrosine], in test [3], the “amount of GABA in PFC” value is given as “higher than the amount level of the normal group”, the “amount of glutamate in PFC” value is reported as “higher than the amount level of the normal group”, the “amount of glutamine in PFC” value is reported as “higher than the amount level of the normal group” and the “amount of tyrosine in PFC” value is “higher than the amount level of the normal group”. In addition, the severity of seizure result in test [4] (ICR mouse, L-Tyr diet 181, 543 or 905 mg/kg for 1 week, kainic acid 30 mg/kg i.p., 2 hours) is given as “severity of seizure is gradually reduced depending on tyrosine amount”. Besides, the mouse death result in test [4] (depending on intake amount of tyrosine, kainic acid 30 mg/kg i.p.) was “improvement in mouse death was also observed depending on intake amount of tyrosine”. Moreover, in test [4] (diet with feeds containing tyrosine 900 mg/kg (actual intake amount)), the survival entry is “all of the mice have survived”. Further, the “ROS/RNS amount in mitochondria” value in test [5] is reported as “suppressed”. Further, the “GS activity in PFC” value in test [6] (stress group, tyrosine diet (181.2 mg/kg) compared to normal diet) is listed as “statistically significant increase in the GS activity”. In test [6] (tyrosine-diet group compared to stress group with normal diet, PFC), the “amount of N-Tyr (nitrated tyrosine) in GS” value is on record as “statistically significant decrease in the amount of N-Tyr”.
